Data: patent US9745273B2, “Phenazine derivatives as anti-neoplastic agents and anti-infective agents” (Universitetet I Oslo, priority 2013, dated 2017)

Legend:
[1] = Solubility in water; assay type: physicochemical
From the text: In the prior art, these problems are not properly addressed. […] In DE 2016467, DE 2115660, U.S. Pat. No. 3,929,790, U.S. Pat. No. 3,937,707, WO 2008/089283, and in Alonso et al, Chem. Comm. 2004, 41, 412-413, methods to alkylate iodinin or myxin via their alkali salts is described. However, the functional groups introduced were alkyl groups, rendering the derivatives less water soluble than the parent compounds. No discussion of improvement in water solubility was described.

[2] = Solubility in biocompatible and organic solvents; assay type: physicochemical
From the text: However, production of nano-carriers by emulsion-evaporation merit that the compound to be encapsulated must be dissolved in an organic solvent that is immiscible with water. The present invention enables the production of iodinin-encapsulated nanocarriers—iodinin and a biodegradable polymer can be dissolved in chloroform and mixed with water to make a nano-suspension, and organic solvent evaporated to co-precipitate the polymer with iodinin. To improve the nanonization of iodinin, a polymer can be precipitated to produce nanoparticles. The advantage of incorporating iodinin itself into a biodegradable polymer is that the drug load in the formulation may be higher. The particles may be coated with monoclonal antibodies, e.g. CD11 or CD33 against AML.

[3] = tested on: leukaemia cell lines and AML-patient blasts; details: cited from earlier work
[4] = tested on: peripheral blood leukocytes (PBL); details: at comparable anti-AML activity; cited from earlier work
[5] = tested on: rat cardiomyoblasts; details: at comparable anti-AML activity; cited from earlier work
[6] = tested on: blood platelets; details: at comparable anti-AML activity; cited from earlier work
[7] = tested on: intestinal mucosa; details: mouse, direct infusion of supra-saturated solution into the gut through a tube; cited from earlier work
[8] = tested on: mouse sarcoma model; details: in vivo; cited from earlier work
[9] = tested on: certain other bacteria; details: cited from earlier work

| Compound | solubility in water [1] | solubility in biocompatible solvents ([2]; biocompatible solvents) | solubility in organic solvents ([2]; organic solvents such as toluene and chloroform) | potency against leukaemia cell lines and AML-patient blasts [3] | effect on AML cells ([3]; iodinin extracted from marine actinomycetes bacteria) | toxicity towards peripheral blood leukocytes (PBL) versus DNR [4] | toxicity towards rat cardiomyoblasts versus DNR [5] | toxicity towards blood platelets versus DNR [6] | intestinal symptoms / histological alteration of the intestinal mucosa [7] | activity against a mouse sarcoma model [8] | inhibition of growth of other bacteria [9] |
| --- | --- | --- | --- | --- | --- | --- | --- | --- | --- | --- | --- |
| [O-][n+]1c2cccc(O)c2[n+]([O-])c2cccc(O)c21 [iodinin, 1,6-dihydroxyphenazine-5,10-dioxide] | practically insoluble | poorly soluble | soluble | particularly potent | pronounced effect | less toxic than DNR | less toxic than DNR | less toxic than DNR | failed to cause any intestinal symptoms or histologically detectable alteration of the intestinal mucosa | low activity | inhibit the growth |
| COc1cccc2c1[n+]([O-])c1cccc(O)c1[n+]2[O-] [myxin] | practically insoluble |  |  |  |  |  |  |  |  | low activity |  |
